Experimental findings from ChEMBL document CHEMBL1201862, “PubChem BioAssay data set” (2004) are described below.

Calls of active or inactive are those of the source.

Test [1] deals with T1, Bcl-2-related protein A1 (Mus musculus, UniProt Q07440).
T1 sequence (Q07440 whole entry): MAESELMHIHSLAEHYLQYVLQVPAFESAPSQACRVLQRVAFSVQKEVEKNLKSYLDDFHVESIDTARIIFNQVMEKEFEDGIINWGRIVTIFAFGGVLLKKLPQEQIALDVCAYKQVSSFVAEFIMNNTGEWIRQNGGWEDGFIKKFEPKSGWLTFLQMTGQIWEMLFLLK
Nature of the test: small-molecule antagonists of Bfl-1/BH3 interaction – biochemical, TR-FRET, mouse Bfl-1, confirmation (AID 621).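 Further: TR-FRET binding of GST-Bfl-1 to FITC-labelled Bid peptide via terbium antibody.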 For orientation: TR-FRET usually uses a lanthanide donor and a delayed reading to cut background.

For test [2], the target named is T1, Bcl-2-related protein A1. Description: Bfl-1 binding inhibitors, SAR follow-up, biochemical, fluorescence polarization (AID 1070). (In general: In fluorescence polarisation assays a small probe gives low polarisation when free and higher when bound to something large.)
Test [3] deals with Mitogen-activated protein kinase 10 (Homo sapiens, UniProt P53779). Description: Dose response biochemical screening assay for inhibitors of c-Jun N-Terminal Kinase 3 (JNK3). [Related pubchem assays: 746 ].
In test [4] the target is T2, Tyrosine-protein phosphatase non-receptor type 7 (Homo sapiens, UniProt P35236).
T2 sequence (P35236 whole entry): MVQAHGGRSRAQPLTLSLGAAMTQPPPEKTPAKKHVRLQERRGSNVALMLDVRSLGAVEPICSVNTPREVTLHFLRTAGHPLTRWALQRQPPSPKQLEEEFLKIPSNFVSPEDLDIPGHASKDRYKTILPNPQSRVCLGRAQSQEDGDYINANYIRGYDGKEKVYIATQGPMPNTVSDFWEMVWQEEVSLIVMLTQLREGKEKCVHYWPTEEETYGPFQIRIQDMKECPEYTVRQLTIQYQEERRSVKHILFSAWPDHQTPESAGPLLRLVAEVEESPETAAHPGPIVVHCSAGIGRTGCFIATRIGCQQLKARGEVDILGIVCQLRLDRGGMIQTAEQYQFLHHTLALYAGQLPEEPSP
Description: HePTP tyrosine phosphatase activity blockers – biochemical, absorbance, leukemia target, primary screen (AID 521). Format: functional.

A short description of test [5]: NIH3T3 cell viability loss – ATP luminescence, mouse fibroblasts, counter-screen, dose response (AID 2010).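 Further: cells exposed to compound for about 90 hours before reading.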 Format: functional, cell-based. (In general: A counterscreen serves to expose hits that act by an unwanted route or on another target.)
A short description of test [6]: Trypanosoma cruzi growth suppression in host cells – NIH3T3 host cells, beta-gal luminescence, confirmation (AID 2044).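 Further: intracellular parasites grown in NIH/3T3 mouse fibroblasts as host cells; luminescent beta-galactosidase reporter signal from transgenic T. cruzi replicating inside host cells; inhibitors lower the luminescence signal.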 Format: functional, cell-based.
For the next test, the target named is Fatty acid synthase (Homo sapiens, UniProt P49327). Description: inhibition of human FAS-TE enzyme activity – biochemical, kinetic fluorescence intensity, dose response (AID 624326).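 Further: rate of fluorescence rise from hydrolysis of a fluorogenic O-methyl fluorescein ester substrate.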 Format: functional.
The target in test [7] is Voltage-gated inwardly rectifying potassium channel KCNH2 (Homo sapiens, UniProt Q12809). Description: concentration-dependent hERG rescue from blockers – cell-based, thallium flux, dose response (AID 2121). Format: ADME.
Sequence of Voltage-gated inwardly rectifying potassium channel KCNH2 (Q12809 whole entry): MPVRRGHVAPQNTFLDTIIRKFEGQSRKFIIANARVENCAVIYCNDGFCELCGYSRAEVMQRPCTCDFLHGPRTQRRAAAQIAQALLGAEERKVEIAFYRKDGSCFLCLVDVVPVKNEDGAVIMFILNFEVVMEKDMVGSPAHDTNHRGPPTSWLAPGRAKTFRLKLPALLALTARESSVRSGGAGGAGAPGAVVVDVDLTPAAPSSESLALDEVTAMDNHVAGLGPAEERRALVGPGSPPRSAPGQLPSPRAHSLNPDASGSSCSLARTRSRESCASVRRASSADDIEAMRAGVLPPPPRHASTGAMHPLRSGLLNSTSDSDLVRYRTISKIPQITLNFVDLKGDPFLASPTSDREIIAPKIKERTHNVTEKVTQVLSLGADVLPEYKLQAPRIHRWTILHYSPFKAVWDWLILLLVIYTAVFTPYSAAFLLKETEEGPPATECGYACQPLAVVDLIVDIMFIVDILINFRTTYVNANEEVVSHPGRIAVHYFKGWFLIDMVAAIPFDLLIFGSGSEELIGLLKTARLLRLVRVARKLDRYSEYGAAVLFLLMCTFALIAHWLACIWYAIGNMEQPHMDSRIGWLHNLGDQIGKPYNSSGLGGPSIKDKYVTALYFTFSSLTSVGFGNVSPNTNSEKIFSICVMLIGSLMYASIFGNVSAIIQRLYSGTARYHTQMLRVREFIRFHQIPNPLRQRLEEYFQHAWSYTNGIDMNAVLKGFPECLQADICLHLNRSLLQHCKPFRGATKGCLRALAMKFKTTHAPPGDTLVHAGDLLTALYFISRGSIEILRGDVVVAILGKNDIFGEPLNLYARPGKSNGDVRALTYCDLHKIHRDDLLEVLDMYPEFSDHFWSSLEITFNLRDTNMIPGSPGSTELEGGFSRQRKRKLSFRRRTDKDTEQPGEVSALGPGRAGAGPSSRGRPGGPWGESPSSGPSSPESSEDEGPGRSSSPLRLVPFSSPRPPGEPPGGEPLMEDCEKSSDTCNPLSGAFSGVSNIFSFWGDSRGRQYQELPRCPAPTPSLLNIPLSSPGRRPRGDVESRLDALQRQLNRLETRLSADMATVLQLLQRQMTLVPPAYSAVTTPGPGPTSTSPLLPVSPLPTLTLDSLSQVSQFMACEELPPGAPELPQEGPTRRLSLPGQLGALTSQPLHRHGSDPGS

Sequence of Fatty acid synthase (P49327 whole entry): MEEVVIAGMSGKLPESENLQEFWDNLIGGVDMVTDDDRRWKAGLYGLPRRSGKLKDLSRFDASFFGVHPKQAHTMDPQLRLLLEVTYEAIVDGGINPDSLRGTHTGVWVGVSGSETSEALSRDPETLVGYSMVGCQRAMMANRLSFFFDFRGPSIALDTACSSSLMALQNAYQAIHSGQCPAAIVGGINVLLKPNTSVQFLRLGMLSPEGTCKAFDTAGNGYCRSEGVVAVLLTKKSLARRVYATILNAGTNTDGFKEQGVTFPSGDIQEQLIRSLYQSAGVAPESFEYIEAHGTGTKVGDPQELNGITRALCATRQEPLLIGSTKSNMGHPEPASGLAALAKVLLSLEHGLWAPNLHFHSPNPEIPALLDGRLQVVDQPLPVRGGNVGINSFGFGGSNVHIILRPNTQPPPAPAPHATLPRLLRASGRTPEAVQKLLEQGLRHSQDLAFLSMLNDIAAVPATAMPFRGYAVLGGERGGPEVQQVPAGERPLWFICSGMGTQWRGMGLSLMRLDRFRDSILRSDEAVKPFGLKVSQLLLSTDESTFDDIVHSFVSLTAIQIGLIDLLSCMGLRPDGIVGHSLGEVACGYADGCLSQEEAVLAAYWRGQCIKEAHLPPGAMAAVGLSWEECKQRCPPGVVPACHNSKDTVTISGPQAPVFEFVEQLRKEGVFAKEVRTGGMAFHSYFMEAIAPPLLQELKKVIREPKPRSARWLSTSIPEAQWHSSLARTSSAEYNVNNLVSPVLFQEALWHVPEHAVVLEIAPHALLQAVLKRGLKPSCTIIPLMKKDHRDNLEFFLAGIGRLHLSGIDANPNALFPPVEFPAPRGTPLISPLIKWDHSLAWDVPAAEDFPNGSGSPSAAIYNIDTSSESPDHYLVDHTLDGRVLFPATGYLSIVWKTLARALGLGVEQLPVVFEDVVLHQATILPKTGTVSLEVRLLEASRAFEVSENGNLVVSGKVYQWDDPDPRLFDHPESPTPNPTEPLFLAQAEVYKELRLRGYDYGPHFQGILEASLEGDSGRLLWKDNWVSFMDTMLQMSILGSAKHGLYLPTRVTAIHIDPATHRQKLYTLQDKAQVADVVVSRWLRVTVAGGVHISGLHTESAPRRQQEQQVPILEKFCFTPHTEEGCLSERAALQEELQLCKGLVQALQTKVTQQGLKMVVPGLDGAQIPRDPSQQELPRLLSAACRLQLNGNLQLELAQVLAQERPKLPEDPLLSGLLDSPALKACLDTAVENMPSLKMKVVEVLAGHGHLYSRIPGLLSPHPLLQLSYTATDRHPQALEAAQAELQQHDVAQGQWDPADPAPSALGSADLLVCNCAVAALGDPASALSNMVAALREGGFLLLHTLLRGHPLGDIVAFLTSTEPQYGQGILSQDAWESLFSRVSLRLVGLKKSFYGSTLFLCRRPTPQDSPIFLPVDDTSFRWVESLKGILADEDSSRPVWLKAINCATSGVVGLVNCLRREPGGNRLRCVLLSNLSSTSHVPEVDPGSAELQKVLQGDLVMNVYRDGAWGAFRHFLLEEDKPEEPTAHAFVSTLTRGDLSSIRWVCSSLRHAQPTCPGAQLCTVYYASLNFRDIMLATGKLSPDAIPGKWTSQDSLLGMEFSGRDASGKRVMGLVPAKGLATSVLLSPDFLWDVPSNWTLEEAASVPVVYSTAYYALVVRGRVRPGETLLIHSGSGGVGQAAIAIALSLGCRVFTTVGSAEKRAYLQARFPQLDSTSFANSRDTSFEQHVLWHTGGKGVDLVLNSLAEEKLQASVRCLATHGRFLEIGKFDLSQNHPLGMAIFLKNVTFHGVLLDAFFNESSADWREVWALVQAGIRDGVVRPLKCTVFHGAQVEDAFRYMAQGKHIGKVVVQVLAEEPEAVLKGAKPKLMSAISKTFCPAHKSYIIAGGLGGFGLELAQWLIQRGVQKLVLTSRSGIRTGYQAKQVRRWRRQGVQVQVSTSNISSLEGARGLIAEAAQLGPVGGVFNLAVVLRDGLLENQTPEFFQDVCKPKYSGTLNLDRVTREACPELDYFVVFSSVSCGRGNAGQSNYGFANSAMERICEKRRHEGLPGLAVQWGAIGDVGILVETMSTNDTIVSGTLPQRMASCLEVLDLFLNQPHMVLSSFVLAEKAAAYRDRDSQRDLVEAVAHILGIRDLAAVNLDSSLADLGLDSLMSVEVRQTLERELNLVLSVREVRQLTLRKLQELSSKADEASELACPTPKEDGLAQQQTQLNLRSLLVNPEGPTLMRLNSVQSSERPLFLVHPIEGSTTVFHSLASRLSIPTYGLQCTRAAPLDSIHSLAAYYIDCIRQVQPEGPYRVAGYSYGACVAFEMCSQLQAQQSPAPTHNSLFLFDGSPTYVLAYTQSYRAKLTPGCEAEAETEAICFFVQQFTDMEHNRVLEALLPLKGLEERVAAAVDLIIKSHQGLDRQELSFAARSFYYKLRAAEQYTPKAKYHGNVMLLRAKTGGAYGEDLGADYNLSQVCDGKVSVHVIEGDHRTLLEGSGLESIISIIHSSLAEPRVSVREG
Sequence of Mitogen-activated protein kinase 10 (P53779 whole entry): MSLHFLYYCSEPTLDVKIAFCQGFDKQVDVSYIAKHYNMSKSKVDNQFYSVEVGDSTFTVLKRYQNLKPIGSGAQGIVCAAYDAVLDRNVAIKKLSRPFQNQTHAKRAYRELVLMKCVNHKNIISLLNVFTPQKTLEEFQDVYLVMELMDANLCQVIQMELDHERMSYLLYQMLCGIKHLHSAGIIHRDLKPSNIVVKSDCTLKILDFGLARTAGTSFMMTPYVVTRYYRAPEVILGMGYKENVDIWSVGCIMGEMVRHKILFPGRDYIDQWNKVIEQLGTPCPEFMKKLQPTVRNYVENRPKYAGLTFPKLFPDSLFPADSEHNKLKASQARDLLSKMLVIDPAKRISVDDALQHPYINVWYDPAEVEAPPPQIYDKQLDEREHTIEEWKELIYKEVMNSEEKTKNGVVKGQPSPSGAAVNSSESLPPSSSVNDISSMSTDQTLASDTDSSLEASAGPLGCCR

In the case of `Cc1ccc(-n2nnc(-c3cnc4ccccc4c3)n2)cc1`, the concentration for half-maximal inhibition (IC50) against Bcl-2-related protein A1 [1] and at Bcl-2-related protein A1 [2] was > 100 µM (not active) each time.
As for `CCOc1cccc(NC(=O)C2CCCN(S(=O)(=O)c3ccc(-n4cnnn4)cc3)C2)c1` (centres undefined), the IC50 – broadly, the concentration that gives 50% inhibition – in test [3] is > 93.1 µM (not active).
In the case of `CNC(=O)N(c1ccccc1)c1ccccc1`, the IC50 in [4] is reported as > 100 µM (not active).
With `CCOC(=O)N1CCN(S(=O)(=O)c2ccc(C(=O)N(CCN(C)C)c3nc4ccc(Cl)cc4s3)cc2)CC1`, the EC50 – broadly, the midpoint of the concentration-response curve – in test [5] is > 60 µM (not active); in the test “cells”, 0.07 µM (active); in test [6] it was < 0.1 µM (active).
Regarding `Cc1cccc(N2CCN(C(=O)CNC(=O)c3cccc([N+](=O)[O-])c3)CC2)c1C`, on Fatty acid synthase, the 50% inhibitory concentration (IC50) is 1.51 µM (active). The EC50 in test [7] was 0.38 µM (active).
